Reference: patent US12497365B2, “4-pyridinyl formamide compound or derivative thereof, preparation method therefor, herbicidal composition and use thereof” (Qingdao Kingagroot Chemical Compound Co., Ltd., priority 2019, dated 2025)

Tested on: Chenopodium album
Assay: Weeding effect in post-emergence stage
Format: in vivo
Conditions: active ingredient 2000 g/ha, 3 weeks after application, fresh weight control rate
In short: (§1)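 Post-emergence spray, 2-3 leaf stage; acetone/Tween 80 formulation + methyl oleate EC synergist (1.5 liter/ha); 125-2000 g/ha via spray tower. Greenhouse, 3 wk. Read-out: fresh weight growth control rate, graded by activity level.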

Row | Structure (SMILES) | Weeding effect, activity level (growth control rate), Chenopodium album
1 | Cn1nnnc1NC(=O)c1ccnc(-c2ccc(Br)cc2)c1Cl [Compound 1-22] | 5 (Level 5: growth control rate is above 85%)
2 | CN(C)c1c(C(=O)Nc2nnnn2C)ccnc1-c1ccc(Cl)cc1 [Compound 1-2044] | 5 (Level 5: growth control rate is above 85%)
3 | Cc1ccc(-c2nccc(C(=O)Nc3nnnn3C)c2Cl)cc1F [Compound 1-68] | 5 (Level 5: growth control rate is above 85%)
4 | CCCC1CCC(c2ccc(-c3nccc(C(=O)Nc4nnnn4C)c3Cl)cc2)CC1 (stereo not shown) [Compound 1-14] | 5 (Level 5: growth control rate is above 85%)
5 | Cn1nnnc1NC(=O)c1ccnc(-c2ccc(F)cc2)c1-c1ccccc1 [Compound 1-199] | 5 (Level 5: growth control rate is above 85%)
6 | Cn1nnnc1NC(=O)c1ccnc(-c2ccc(Oc3ccccc3)c(Cl)c2)c1Cl [Compound 1-107] | 5 (Level 5: growth control rate is above 85%)
7 | Cn1ncnc1NC(=O)c1ccnc(-c2ccc(F)cc2)c1Cl [Compound 1-334] | 5 (Level 5: growth control rate is above 85%)
8 | Cc1ccccc1-c1nccc(C(=O)Nc2nnnn2C)c1Cl [Compound 1-9] | 5 (Level 5: growth control rate is above 85%)
9 | Cc1cccc(C)c1-c1nccc(C(=O)Nc2nnnn2C)c1Cl [Compound 1-58] | 5 (Level 5: growth control rate is above 85%)
10 | Cn1nnnc1NC(=O)c1ccnc(-c2cccc(OC(F)(F)F)c2)c1Cl [Compound 1-32] | 5 (Level 5: growth control rate is above 85%)
11 | Cn1nnnc1NC(=O)c1ccnc(-c2ccc3ccccc3c2)c1Cl [Compound 1-112] | 5 (Level 5: growth control rate is above 85%)
12 | Cn1nnnc1NC(=O)c1ccnc(-c2ccoc2)c1Cl [Compound 1-183] | 5 (Level 5: growth control rate is above 85%)
13 | COc1c(C(=O)Nc2nnnn2C)ccnc1-c1ccc(F)cc1 [Compound 1-200] | 5 (Level 5: growth control rate is above 85%)
14 | CC[S+]([O-])c1c(C(=O)Nc2nnnn2C)ccnc1-c1ccc(F)cc1 (stereo not shown) [Compound 1-206] | 5 (Level 5: growth control rate is above 85%)
15 | Cc1c(C(=O)Nc2nnnn2C)ccnc1-c1ccc(F)cc1 [Compound 1-194] | 5 (Level 5: growth control rate is above 85%)
16 | CN(C)C(=O)c1ccc(-c2nccc(C(=O)Nc3nnnn3C)c2Cl)cc1 [Compound 1-1925] | 5 (Level 5: growth control rate is above 85%)
17 | Cn1nnnc1NC(=O)c1ccnc(-c2ccnc(F)c2)c1Cl [Compound 1-149] | 5 (Level 5: growth control rate is above 85%)
18 | Cn1nnnc1NC(=O)c1ccnc(-c2ccc(F)cn2)c1Cl [Compound 1-123] | 5 (Level 5: growth control rate is above 85%)
19 | CCOc1c(C(=O)Nc2nnnn2C)ccnc1-c1ccc(F)cc1 [Compound 1-201] | 5 (Level 5: growth control rate is above 85%)
20 | Cn1nnnc1NC(=O)c1ccnc(OCc2ccccc2)c1Cl [Compound 1-2064] | 5 (Level 5: growth control rate is above 85%)
21 | COC(=O)c1ccc(-c2nccc(C(=O)Nc3nnnn3C)c2Cl)cc1 [Compound 1-40] | 5 (Level 5: growth control rate is above 85%)
22 | Cn1nnnc1NC(=O)c1ccnc(-c2cccs2)c1Cl [Compound 1-186] | 5 (Level 5: growth control rate is above 85%)

Tested on: Abutilon theophrasti
Assay: Weeding effect in post-emergence stage
Format: in vivo
Conditions: active ingredient 2000 g/ha, 3 weeks after application, fresh weight control rate
In short: as §1

Row | Structure (SMILES) | Weeding effect, activity level (growth control rate), Abutilon theophrasti
23 | Cn1nnnc1NC(=O)c1ccnc(-c2ccc(Br)cc2)c1Cl [Compound 1-22] | 5 (Level 5: growth control rate is above 85%)
24 | CN(C)c1c(C(=O)Nc2nnnn2C)ccnc1-c1ccc(Cl)cc1 [Compound 1-2044] | 5 (Level 5: growth control rate is above 85%)
25 | Cc1ccc(-c2nccc(C(=O)Nc3nnnn3C)c2Cl)cc1F [Compound 1-68] | 5 (Level 5: growth control rate is above 85%)
26 | CCCC1CCC(c2ccc(-c3nccc(C(=O)Nc4nnnn4C)c3Cl)cc2)CC1 (stereo not shown) [Compound 1-14] | 5 (Level 5: growth control rate is above 85%)
27 | Cn1nnnc1NC(=O)c1ccnc(-c2ccc(F)cc2)c1-c1ccccc1 [Compound 1-199] | 5 (Level 5: growth control rate is above 85%)
28 | Cn1nnnc1NC(=O)c1ccnc(-c2ccc(Oc3ccccc3)c(Cl)c2)c1Cl [Compound 1-107] | 5 (Level 5: growth control rate is above 85%)
29 | Cn1ncnc1NC(=O)c1ccnc(-c2ccc(F)cc2)c1Cl [Compound 1-334] | 5 (Level 5: growth control rate is above 85%)
30 | Cc1ccccc1-c1nccc(C(=O)Nc2nnnn2C)c1Cl [Compound 1-9] | 5 (Level 5: growth control rate is above 85%)
31 | Cc1cccc(C)c1-c1nccc(C(=O)Nc2nnnn2C)c1Cl [Compound 1-58] | 5 (Level 5: growth control rate is above 85%)
32 | Cn1nnnc1NC(=O)c1ccnc(-c2cccc(OC(F)(F)F)c2)c1Cl [Compound 1-32] | 5 (Level 5: growth control rate is above 85%)
33 | Cn1nnnc1NC(=O)c1ccnc(-c2ccc3ccccc3c2)c1Cl [Compound 1-112] | 5 (Level 5: growth control rate is above 85%)
34 | Cn1nnnc1NC(=O)c1ccnc(-c2ccoc2)c1Cl [Compound 1-183] | 5 (Level 5: growth control rate is above 85%)
35 | COc1c(C(=O)Nc2nnnn2C)ccnc1-c1ccc(F)cc1 [Compound 1-200] | 5 (Level 5: growth control rate is above 85%)
36 | CC[S+]([O-])c1c(C(=O)Nc2nnnn2C)ccnc1-c1ccc(F)cc1 (stereo not shown) [Compound 1-206] | 5 (Level 5: growth control rate is above 85%)
37 | Cc1c(C(=O)Nc2nnnn2C)ccnc1-c1ccc(F)cc1 [Compound 1-194] | 5 (Level 5: growth control rate is above 85%)
38 | CN(C)C(=O)c1ccc(-c2nccc(C(=O)Nc3nnnn3C)c2Cl)cc1 [Compound 1-1925] | 5 (Level 5: growth control rate is above 85%)
39 | Cn1nnnc1NC(=O)c1ccnc(-c2ccnc(F)c2)c1Cl [Compound 1-149] | 5 (Level 5: growth control rate is above 85%)
40 | Cn1nnnc1NC(=O)c1ccnc(-c2ccc(F)cn2)c1Cl [Compound 1-123] | 5 (Level 5: growth control rate is above 85%)
41 | CCOc1c(C(=O)Nc2nnnn2C)ccnc1-c1ccc(F)cc1 [Compound 1-201] | 5 (Level 5: growth control rate is above 85%)
42 | Cn1nnnc1NC(=O)c1ccnc(OCc2ccccc2)c1Cl [Compound 1-2064] | 5 (Level 5: growth control rate is above 85%)
43 | COC(=O)c1ccc(-c2nccc(C(=O)Nc3nnnn3C)c2Cl)cc1 [Compound 1-40] | 5 (Level 5: growth control rate is above 85%)
44 | Cn1nnnc1NC(=O)c1ccnc(-c2cccs2)c1Cl [Compound 1-186] | 5 (Level 5: growth control rate is above 85%)

Tested on: Amaranthus retroflexus L.
Assay: Weeding effect in post-emergence stage
Format: in vivo
Conditions: active ingredient 2000 g/ha, 3 weeks after application, fresh weight control rate
In short: as §1

Row | Structure (SMILES) | Weeding effect, activity level (growth control rate), Amaranthus retroflexus L.
45 | Cn1nnnc1NC(=O)c1ccnc(-c2ccc(Br)cc2)c1Cl [Compound 1-22] | 5 (Level 5: growth control rate is above 85%)
46 | CN(C)c1c(C(=O)Nc2nnnn2C)ccnc1-c1ccc(Cl)cc1 [Compound 1-2044] | 5 (Level 5: growth control rate is above 85%)
47 | Cc1ccc(-c2nccc(C(=O)Nc3nnnn3C)c2Cl)cc1F [Compound 1-68] | 5 (Level 5: growth control rate is above 85%)
48 | CCCC1CCC(c2ccc(-c3nccc(C(=O)Nc4nnnn4C)c3Cl)cc2)CC1 (stereo not shown) [Compound 1-14] | 5 (Level 5: growth control rate is above 85%)
49 | Cn1nnnc1NC(=O)c1ccnc(-c2ccc(F)cc2)c1-c1ccccc1 [Compound 1-199] | 5 (Level 5: growth control rate is above 85%)
50 | Cn1nnnc1NC(=O)c1ccnc(-c2ccc(Oc3ccccc3)c(Cl)c2)c1Cl [Compound 1-107] | 5 (Level 5: growth control rate is above 85%)
51 | Cn1ncnc1NC(=O)c1ccnc(-c2ccc(F)cc2)c1Cl [Compound 1-334] | 5 (Level 5: growth control rate is above 85%)
52 | Cc1ccccc1-c1nccc(C(=O)Nc2nnnn2C)c1Cl [Compound 1-9] | 5 (Level 5: growth control rate is above 85%)
53 | Cc1cccc(C)c1-c1nccc(C(=O)Nc2nnnn2C)c1Cl [Compound 1-58] | 5 (Level 5: growth control rate is above 85%)
54 | Cn1nnnc1NC(=O)c1ccnc(-c2cccc(OC(F)(F)F)c2)c1Cl [Compound 1-32] | 5 (Level 5: growth control rate is above 85%)
55 | Cn1nnnc1NC(=O)c1ccnc(-c2ccc3ccccc3c2)c1Cl [Compound 1-112] | 5 (Level 5: growth control rate is above 85%)
56 | Cn1nnnc1NC(=O)c1ccnc(-c2ccoc2)c1Cl [Compound 1-183] | 5 (Level 5: growth control rate is above 85%)
57 | COc1c(C(=O)Nc2nnnn2C)ccnc1-c1ccc(F)cc1 [Compound 1-200] | 5 (Level 5: growth control rate is above 85%)
58 | CC[S+]([O-])c1c(C(=O)Nc2nnnn2C)ccnc1-c1ccc(F)cc1 (stereo not shown) [Compound 1-206] | 5 (Level 5: growth control rate is above 85%)
59 | Cc1c(C(=O)Nc2nnnn2C)ccnc1-c1ccc(F)cc1 [Compound 1-194] | 5 (Level 5: growth control rate is above 85%)
60 | CN(C)C(=O)c1ccc(-c2nccc(C(=O)Nc3nnnn3C)c2Cl)cc1 [Compound 1-1925] | 5 (Level 5: growth control rate is above 85%)
61 | Cn1nnnc1NC(=O)c1ccnc(-c2ccnc(F)c2)c1Cl [Compound 1-149] | 5 (Level 5: growth control rate is above 85%)
62 | Cn1nnnc1NC(=O)c1ccnc(-c2ccc(F)cn2)c1Cl [Compound 1-123] | 5 (Level 5: growth control rate is above 85%)
63 | CCOc1c(C(=O)Nc2nnnn2C)ccnc1-c1ccc(F)cc1 [Compound 1-201] | 5 (Level 5: growth control rate is above 85%)
64 | Cn1nnnc1NC(=O)c1ccnc(OCc2ccccc2)c1Cl [Compound 1-2064] | 5 (Level 5: growth control rate is above 85%)
65 | COC(=O)c1ccc(-c2nccc(C(=O)Nc3nnnn3C)c2Cl)cc1 [Compound 1-40] | 5 (Level 5: growth control rate is above 85%)
66 | Cn1nnnc1NC(=O)c1ccnc(-c2cccs2)c1Cl [Compound 1-186] | 5 (Level 5: growth control rate is above 85%)

Tested on: Descurainia sophia
Assay: Weeding effect in post-emergence stage
Format: in vivo
Conditions: active ingredient 2000 g/ha, 3 weeks after application, fresh weight control rate
In short: as §1

Row | Structure (SMILES) | Weeding effect, activity level (growth control rate), Descurainia sophia
67 | Cn1nnnc1NC(=O)c1ccnc(-c2ccc(Br)cc2)c1Cl [Compound 1-22] | 5 (Level 5: growth control rate is above 85%)
68 | CN(C)c1c(C(=O)Nc2nnnn2C)ccnc1-c1ccc(Cl)cc1 [Compound 1-2044] | 5 (Level 5: growth control rate is above 85%)
69 | Cc1ccc(-c2nccc(C(=O)Nc3nnnn3C)c2Cl)cc1F [Compound 1-68] | 5 (Level 5: growth control rate is above 85%)
70 | CCCC1CCC(c2ccc(-c3nccc(C(=O)Nc4nnnn4C)c3Cl)cc2)CC1 (stereo not shown) [Compound 1-14] | 5 (Level 5: growth control rate is above 85%)
71 | Cn1nnnc1NC(=O)c1ccnc(-c2ccc(F)cc2)c1-c1ccccc1 [Compound 1-199] | 5 (Level 5: growth control rate is above 85%)
72 | Cn1nnnc1NC(=O)c1ccnc(-c2ccc(Oc3ccccc3)c(Cl)c2)c1Cl [Compound 1-107] | 5 (Level 5: growth control rate is above 85%)
73 | Cn1ncnc1NC(=O)c1ccnc(-c2ccc(F)cc2)c1Cl [Compound 1-334] | 5 (Level 5: growth control rate is above 85%)
74 | Cc1ccccc1-c1nccc(C(=O)Nc2nnnn2C)c1Cl [Compound 1-9] | 5 (Level 5: growth control rate is above 85%)
75 | Cc1cccc(C)c1-c1nccc(C(=O)Nc2nnnn2C)c1Cl [Compound 1-58] | 5 (Level 5: growth control rate is above 85%)
76 | Cn1nnnc1NC(=O)c1ccnc(-c2cccc(OC(F)(F)F)c2)c1Cl [Compound 1-32] | 5 (Level 5: growth control rate is above 85%)
77 | Cn1nnnc1NC(=O)c1ccnc(-c2ccc3ccccc3c2)c1Cl [Compound 1-112] | 5 (Level 5: growth control rate is above 85%)
78 | Cn1nnnc1NC(=O)c1ccnc(-c2ccoc2)c1Cl [Compound 1-183] | 5 (Level 5: growth control rate is above 85%)
79 | COc1c(C(=O)Nc2nnnn2C)ccnc1-c1ccc(F)cc1 [Compound 1-200] | 5 (Level 5: growth control rate is above 85%)
80 | CC[S+]([O-])c1c(C(=O)Nc2nnnn2C)ccnc1-c1ccc(F)cc1 (stereo not shown) [Compound 1-206] | 5 (Level 5: growth control rate is above 85%)
81 | Cc1c(C(=O)Nc2nnnn2C)ccnc1-c1ccc(F)cc1 [Compound 1-194] | 5 (Level 5: growth control rate is above 85%)
82 | CN(C)C(=O)c1ccc(-c2nccc(C(=O)Nc3nnnn3C)c2Cl)cc1 [Compound 1-1925] | 5 (Level 5: growth control rate is above 85%)
83 | Cn1nnnc1NC(=O)c1ccnc(-c2ccnc(F)c2)c1Cl [Compound 1-149] | 5 (Level 5: growth control rate is above 85%)
84 | Cn1nnnc1NC(=O)c1ccnc(-c2ccc(F)cn2)c1Cl [Compound 1-123] | 5 (Level 5: growth control rate is above 85%)
85 | CCOc1c(C(=O)Nc2nnnn2C)ccnc1-c1ccc(F)cc1 [Compound 1-201] | 5 (Level 5: growth control rate is above 85%)
86 | Cn1nnnc1NC(=O)c1ccnc(OCc2ccccc2)c1Cl [Compound 1-2064] | 5 (Level 5: growth control rate is above 85%)
87 | COC(=O)c1ccc(-c2nccc(C(=O)Nc3nnnn3C)c2Cl)cc1 [Compound 1-40] | 5 (Level 5: growth control rate is above 85%)
88 | Cn1nnnc1NC(=O)c1ccnc(-c2cccs2)c1Cl [Compound 1-186] | 5 (Level 5: growth control rate is above 85%)
